Results published in publication PMC7162492, “Pharmacological and pharmacokinetic profile of the novel ocular hypotensive prodrug CKLP1 in Dutch-belted pigmented rabbits” (PLoS ONE, 2020).
Several values for one entry are separate records, joined by “and”; a condition that tells them apart may be missing. Equal entries are not always repeated. Where two headings read alike, the source gives them in different places. Each block holds one compound with its values, some of them ahead of it.

What was measured:
[1] = Plasma pharmacokinetics after topical eye drops of CKLP1, days 1, 4 and 8 (LC-MS/MS); format: in vivo, Dutch-belted pigmented rabbits; conditions: for AUC(0-t) / Cmax / half-life / Tmax: female, Dutch-belted pigmented, rabbit, topical or ocular; for AUC(0-t) / Cmax / half-life / Tmax / Clast / Tlast: plasma; for Cmax: read-out: Cmax; for half-life: read-out: Half-life (converted); for Tmax: read-out: Tmax (converted)
Description: (§1) LC-MS/MS analysis of all fluids were performed using a Waters (Milford, MA) Acquity UPLC BEH C18 column (1.7 μm, 2.1 x 50 mm) with an Agilent EC-C18 pre-column (2.7 μm, 2.1 x 5 mm) and a gradient elution program containing ultra-pure water and acetonitrile with 2.5 mM ammonium formate, at a flow rate of 0.2 ml/min. Flavopiridol was used as an internal standard. The column and auto-sampler temperatures were maintained at 40°C and 4°C, respectively. Source parameters were capillary voltage, 2.6 kV; source temperature, 150°C; desolvation temperature, 500°C; cone gas flow, 150 L/h; and desolvation gas flow, 800 L/h. The cone voltages and collision energies for CKLP1, levcromakalim and flavopiridol were determined by MassLynx-Intellistart software, v4.1, and were 32, 34 and 72 V (cone) and 20, 14 and 30 eV (collision), respectively. The retention times were 4.5 minutes for CKLP1, 5.9 minutes for levcromakalim and 5.7 minutes for flavopiridol.
(§2) To validate accurate measurement of CKLP1 and levcromakalim, known concentrations of CKLP1 (5, 10, 25, 50, 100, 250, 500 ng/ml) and levcromakalim (1, 5, 10, 25, 50, 100, 250 ng/ml) were added to human plasma (obtained from the Mayo Clinic Division of Transfusion Medicine under an Institutional Review Board approved protocol) to make calibration curves. Quality control was determined for each run by using known quantities of CKLP1 and levcromakalim to verify that the instrument recorded values consistent with the established standard curve. The effect of carryover was evaluated by injecting blank samples before and after running the standard samples for calibration curves. Unknown samples with signal to noise ratios >10 were recorded as acceptable concentrations. Samples with signal to noise ratios <10 were reported as not detectable (ND). Controls consisted of a double blank (without analytes and internal standard) and a single blank (only internal standard). The linearity of the calibration curves was determined by plotting the ratios of analytes to internal standard peak areas. The curve was fitted by least squares regression with a 1/x weighting for both CKLP1 and levcromakalim. Data was collected from 3–6.4 minutes for CKLP1 and 4–8 minutes for both levcromakalim and flavopiridol. Waters MassLynx Intellistart software v4.1 was used for analysis.
(§3) All experiments with animals were pre-approved by the Institutional Animal Care and Use Committee of the Mayo Clinic, Rochester, MN and adhered to the recommendations in the Guide for the Care and use of Laboratory Animals of the National Institutes of Health, and the tenets of the ARVO Statement for the Use of Animals in Vision Research. Female Dutch-belted pigmented rabbits (age 7 months) were obtained from Covance Research Products, Inc. (Denver, PA). Rabbits were housed in pairs and kept in a climate controlled room with 12 h light and dark cycles. Animals had unrestrained access to water and standard rabbit food pellets at all times. Upon receipt, animals were acclimated for at least 5 days before initiation of the experiment. IOP was measured with a handheld rebound tonometer (Icare Tonovet, Colonial Medical Supply, Franconia, NH, USA) in conscious and minimally restrained, non-anesthetized rabbits as previously described. Briefly, daily IOP was calculated from the average of 3 independent IOP measurements at 3 different time points each day. These time points corresponded to 1 h, 4 h and 23 h post treatment on any given day. Rabbits that needed to be handled for IOP were subjected to sham IOP measurements for two days prior to initiation of experiment. Rabbits (n = 3) were injected intravenously through the right ear vein with CKLP1 as a bolus dose equal to 0.25 mg/kg body weight. Additional rabbits were treated topically through instillation of 50 μl eye drops of a 10 mM (4.1 mg/ml) solution of CKLP1 in sterile PBS. […]

[2] = Tissue and fluid distribution after 90 days of daily topical CKLP1 (LC-MS/MS); format: in vivo, Dutch-belted pigmented rabbits; conditions: topical eye drops 10 mM CKLP1, 90 consecutive days
Description: as §1, §2, §3

[3] = Plasma pharmacokinetics after single intravenous injection of CKLP1 (LC-MS/MS); format: in vivo, Dutch-belted pigmented rabbits
Description: as §1, §2, §3

[4] = Concentration in aqueous and vitreous humor after topical CKLP1 for 1, 4 or 8 days (LC-MS/MS); format: in vivo, Dutch-belted pigmented rabbits; conditions: topical CKLP1 both eyes, days 1, 4 and 8, collected after the 24 h blood sample; for concentration at 24 h: female, Dutch-belted pigmented, rabbit
Description: as §1, §2, §3

[5] = design: method as in earlier work; conditions: ref Roy Chowdhury U, Viker KB, Stoltz KL, et al. J Med Chem. 2016;59(13):6221-31; cited from earlier work
[6] = eye drops 10 mM CKLP1 both eyes once daily, Day 4
[7] = eye drops 10 mM CKLP1 both eyes once daily, Day 8
[8] = eye drops 10 mM CKLP1 both eyes, Day 1
[9] = rabbit, intravenous 0.25 mg/kg CKLP1

- AUC(0-t) [1, 6]: 10.9 ± 6 ng·h/mL
- Cmax [1, 6]: 0.9 ± 0.7 ng/mL
- half-life [1, 6]: 25.8 ± 13.7 h
- Tmax [1, 6]: 3.33 h
- AUC(0-t) [1, 7]: 10.2 ± 0.3 ng·h/mL
- Cmax [1, 7]: 0.6 ± 0.3 ng/mL
- half-life [1, 7]: 12.2 ± 5.6 h
- Tmax [1, 7]: 2.33 h
- AUC(0-t) [1, 8]: 6.1 ± 2 ng·h/mL
- Cmax [1, 8]: 0.4 ± 0.1 ng/mL
- half-life [1, 8]: 13.2 ± 2.6 h
- Tmax [1, 8]: 6.67 h
- Clast [1, 6]: 0.3 ± 0.1 ng/mL
- Tlast [1, 6]: 24.0 ± 0.0 h
- Clast [1, 7]: 0.2 ± 0.1 ng/mL
- Tlast [1, 7]: 18.7 ± 9.2 h
- Clast [1, 8]: 0.1 ± 0.1 ng/mL
- Tlast [1, 8]: 24.0 ± 0.0 h
- Amount in plasma after topical CKLP1 ([1]; topical 10 mM CKLP1 in the eye): trace amounts
- Concentration in Brain [2]: not detected
- Concentration in Heart [2]: not detected
- Concentration in Liver [2]: 5.9 ± 4.3 (n = 4/6) ng/g
- Concentration in Muscle [2]: not detected
- Concentration in Plasma [2]: no detectable levels
- Concentration in aqueous humor [2]: 0.2 ± 0.1 (n = 4/6) ng/ml
- Concentration in vitreous humor [2]: 0.1 ± 0.0 (n = 3/6) ng/ml
- Concentration in Liver ([2]; listed as levcromakalim): 5.9 ± 4.3 ng/g
- Concentration in aqueous humor ([2]; listed as levcromakalim): 0.2 ± 0.1 ng/mL
- Concentration in vitreous humor ([2]; listed as levcromakalim): 0.1 ± 0.0 ng/mL
- AUC(0-t) ([3]; female, Dutch-belted pigmented, rabbit, intravenous 0.25 mg/kg CKLP1): 120 ± 93.7 ng·h/mL
- Cmax ([3]; female, Dutch-belted pigmented, rabbit, intravenous 0.25 mg/kg CKLP1, read-out: Cmax): 10.6 ± 1.2 ng/mL
- half-life ([3]; female, Dutch-belted pigmented, rabbit, intravenous 0.25 mg/kg CKLP1, read-out: Half-life): 1.42 ± 0.617 h
- Tmax ([3]; female, Dutch-belted pigmented, rabbit, intravenous 0.25 mg/kg CKLP1, read-out: Tmax (converted)): 1.02 h
- Peak concentration (Cmax) of levcromakalim relative to CKLP1 ([3]; intravenous CKLP1, fold less than CKLP1): ~200 fold
- Clast [3, 9]: 4.4 ± 4.3 ng/mL
- Tlast [3, 9]: 16.0 ± 8.9 h
- concentration at 24 h ([4]; aqueous humor, read-out: Concentration in aqueous humor): < 0.3 ng/mL
- concentration at 24 h ([4]; vitreous humor, read-out: Concentration in vitreous humor): < 0.3 ng/mL
- Concentration in aqueous humor [4]: low levels
- Concentration in vitreous humor [4]: low levels
SMILES: CC1(C)Oc2ccc(C#N)cc2[C@@H](N2CCCC2=O)[C@@H]1O [Levcromakalim, levcromakalim, reference compound]
- Concentration in Lung [2]: 1.5 ± 0.0 ng/g and 1.5 ± 0.0 (n = 6/6) ng/g

SMILES: CC1(C)Oc2ccc(C#N)cc2C(N2CCCC2=O)C1O (stereo not drawn) [Cromakalim, cromakalim, reference compound]
- Solubility in water [5]: insoluble in water
